The values that follow come from ChEMBL document CHEMBL1201862, “PubChem BioAssay data set” (2004).

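Dose response: 5 concentrations. Exposure: 48 h. Format: 96-well plates. Endpoint: linear interpolation; highest concentration if not reached. GI50: concentration for 50% inhibition of growth.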 Activity calls are given as the source filed them. No stated cut-off is given here; in the data, active = GI50 up to about 1.1 µM and inactive = higher.

Holding throughout (test): DTP human tumour cell line panel, 48 h
The test system of assay [1] is COLO 205.
The test system of assay [2] is TK-10.
Assay [3] has as its system NCI-H23.
Assay [4] deals with SF-295.
Assay [5] relates to SK-MEL-2.
Assay [6] relates to HCT-15.
The subject of assay [7] is M14.
The subject of assay [8] is MDA-MB-435.
Assay [9] relates to UACC-257.
Assay [10] deals with EKVX.
Assay [11] concerns SF-539.
Assay [12] has as its system HCC 2998.
Assay [13] concerns CAKI-1.
The test system of assay [14] is Malme-3M.
Assay [15] relates to NCI-H460.
Assay [16] relates to SK-OV-3.
The test system of assay [17] is 786-0.
Assay [18] relates to MOLT-4.
Assay [19] has as its system SNB-19.
Assay [20] concerns OVCAR-4.

In the case of `O=C1C=CC(=O)C(CNc2ccc(C(=O)OC34CC5CC(CC(C5)C3)C4)cc2)=C1`, the GI50 is 2.04 µM (inactive) in [1]; 11.5 µM (inactive) in [2]; 6.67 µM (inactive) in [3]; 16.6 µM (inactive) in assay [4]; 15.1 µM (inactive) in assay [5]; 2.44 µM in [6]. Also, the GI50 in assay [7] is 12.6 µM (inactive); in assay [8] it was 5.93 µM (inactive); in assay [9] it was 6.04 µM (inactive); in assay [10], 6.53 µM (inactive); in assay [11], 2.49 µM (inactive); in assay [12] it was 15 µM (inactive). Also, the GI50 in [13] was 0.753 µM (active); in [14], 4.58 µM (inactive); in assay [15] it was 15.2 µM (inactive); in assay [16], 20 µM (inactive); in [17], 10.3 µM (inactive); in assay [18], 1.51 µM (inactive). In addition, the GI50 in assay [19] was 12.8 µM (inactive); in assay [20], 3.01 µM (inactive).
`CC(C)/C(Cl)=N/OC(=O)Nc1ccc(F)c(Cl)c1`: the GI50 in assay [1] is 1.77 µM (inactive); in assay [2], 17.9 µM (inactive); in assay [3], 14.2 µM (inactive); in assay [4], 16.1 µM (inactive); in assay [5], 18.8 µM (inactive); in assay [6] it was 1.93 µM. In addition, the GI50 in [7] is 3.23 µM (inactive); in [8], 7.26 µM (inactive); in assay [9], 13.5 µM (inactive); in assay [10] it was 2.07 µM (inactive); in assay [11] it was 6.43 µM (inactive); in assay [12], 14.6 µM (inactive). The GI50 is 1.68 µM (inactive) in assay [13]; 1.96 µM (inactive) in assay [14]; 18.2 µM (inactive) in [15]; 16.4 µM (inactive) in assay [16]; 1.6 µM (inactive) in [17]; 1.94 µM (inactive) in [18]. Further, the GI50 was 22.6 µM (inactive) in [19] and 8.49 µM (inactive) in [20].
On to `Nc1ccc(Nc2c3ccccc3nc3ccccc23)cc1`, for which the GI50 in assay [1] was 3.78 µM (inactive); in assay [2] it was 5.98 µM (inactive); in assay [3], 3.25 µM (inactive); in assay [4], 2.62 µM (inactive); in [5], 7.87 µM (inactive); in assay [6], 2.84 µM. Also, the GI50 was 6.95 µM (inactive) in assay [7]; 5.51 µM (inactive) in assay [8]; > 10 µM (inactive) in assay [9]; 8.51 µM (inactive) in [10]; 3.7 µM (inactive) in assay [11]; > 10 µM (inactive) in [12]. The GI50 in assay [13] is 2.91 µM (inactive); in assay [14] it was 2.98 µM (inactive); in [15], 0.565 µM (active); in [16], 5.5 µM (inactive); in assay [17] it was 3.1 µM (inactive); in [18] it was 0.568 µM (active). The GI50 was 4.99 µM (inactive) in assay [19] and 3.83 µM (inactive) in assay [20].
Turning to `C=C(C)[C@H]1CC(=O)[C@@]2(C)C[C@H]3O[C@]3(C)CC/C=C(\C)CC[C@H]12`, the GI50 is 20.8 µM (inactive) in assay [1]; 22.2 µM (inactive) in assay [2]; 34.4 µM (inactive) in [3]; > 100 µM (inactive) in assay [4]; 45.1 µM (inactive) in assay [5]; 47.2 µM in [6]. The GI50 in [7] was > 10 µM (inactive); in assay [8], 43.8 µM (inactive); in assay [9] it was 19.4 µM (inactive); in assay [10] it was 40.5 µM (inactive); in [11], 42 µM (inactive); in assay [12], > 100 µM (inactive). Besides, the GI50 in [13] is 28.2 µM (inactive); in assay [14], 44.6 µM (inactive); in [15], 45.7 µM (inactive); in assay [16] it was 63.2 µM (inactive); in assay [17], 62.8 µM (inactive); in assay [18], 24 µM (inactive). The GI50 in [19] is 70 µM (inactive); in assay [20], 42.1 µM (inactive).
`C/C(=N\Nc1nc2cc(Cl)ccc2s1)c1ccccn1`: the GI50 in assay [1] was 0.09 µM (active); in [2], 2.74 µM (inactive); in assay [3], 0.403 µM (active); in assay [4] it was 0.914 µM (active); in assay [5] it was 0.442 µM (active); in [6], 0.111 µM. Moreover, the GI50 was 0.443 µM (active) in assay [7]; 1.83 µM (inactive) in assay [8]; 0.519 µM (active) in assay [9]; 0.129 µM (active) in assay [10]; 1.21 µM (inactive) in assay [11]; 11.5 µM (inactive) in assay [12]. Also, the GI50 in assay [13] is 0.0653 µM (active); in assay [14] it was 0.834 µM (active); in [15] it was 0.673 µM (active); in assay [16] it was 0.404 µM (active); in [17] it was 0.617 µM (active); in assay [18] it was 0.0346 µM (active). The GI50 in assay [19] is 1.01 µM (active); in assay [20], 0.39 µM (active).
Regarding `Cc1cc(NS(=O)(=O)c2ccc(NC(=O)c3ccc4nc5ccccc5c(Nc5ccc(S(=O)(=O)Nc6cc(C)on6)cc5)c4c3)cc2)no1`, the GI50 in assay [1] was > 50 µM (inactive); in assay [2], > 50 µM (inactive); in assay [3], > 50 µM (inactive); in [4], > 50 µM (inactive); in [5] it was > 50 µM (inactive); in assay [6], more than 50 µM. Besides, the GI50 in assay [7], in [8], in assay [9], in assay [10], in [11] and in [12] was > 50 µM (inactive) each time. For the same compound, the GI50 in assay [13], in [14], in assay [15], in assay [16], in assay [17] and in [18] was > 50 µM (inactive) throughout. Further, the GI50 in [19] and in [20] was > 50 µM (inactive) throughout.
As for `CC(C)c1c(O)c(O)c2c(c1O)C(=O)C(O)=C1C(C)(C)CCC[C@@]12C`, the GI50 in [1] is 1.97 µM (inactive); in assay [2], 3.86 µM (inactive); in assay [3], 2.92 µM (inactive); in assay [4], 2.96 µM (inactive); in [5], 3.76 µM (inactive); in assay [6], 3.66 µM. Further, the GI50 in assay [7] is 5.47 µM (inactive); in assay [8], 2.96 µM (inactive); in assay [9], 2.67 µM (inactive); in [10], 2.9 µM (inactive); in [11], 3.59 µM (inactive); in assay [12], 3.37 µM (inactive). In addition, the GI50 is 2.61 µM (inactive) in [13]; 3.88 µM (inactive) in [14]; 3.19 µM (inactive) in assay [15]; 3.81 µM (inactive) in [16]; 3.44 µM (inactive) in assay [17]; 2.96 µM (inactive) in assay [18]. Moreover, the GI50 was 4.76 µM (inactive) in assay [19] and 3.26 µM (inactive) in assay [20].
Consider `CN(C)CCNC(=O)c1cc([N+](=O)[O-])cn1C`, for which the GI50 in assay [1] was > 100 µM (inactive); in [2] it was > 100 µM (inactive); in assay [3] it was > 100 µM (inactive); in [4], > 100 µM (inactive); in [5], > 100 µM (inactive); in assay [6] it was more than 100 µM. For the same compound, the GI50 in assay [7], in [8], in assay [9], in [10], in assay [11] and in assay [12] was > 100 µM (inactive) throughout. Also, the GI50 in assay [13], in assay [14], in assay [15], in [16], in assay [17] and in assay [18] was > 100 µM (inactive) in each case. For the same compound, the GI50 in assay [19] and in assay [20] was > 100 µM (inactive) in each case.
On to `COc1ccc(NC(C(N)=O)c2cc3cc(Br)ccc3nc2Cl)cc1` (stereo not given), for which the GI50 in assay [1] was 41 µM (inactive); in [2] it was 3.64 µM (inactive); in assay [3] it was > 100 µM (inactive); in assay [4] it was 38.4 µM (inactive); in [5], 30.3 µM (inactive); in [6], 47.5 µM. In addition, the GI50 in assay [7] is 42 µM (inactive); in assay [8], 22.1 µM (inactive); in [9] it was 71.8 µM (inactive); in assay [10], 28.1 µM (inactive); in assay [11], 19.1 µM (inactive); in [12], 73.8 µM (inactive). In addition, the GI50 is > 100 µM (inactive) in assay [13]; > 100 µM (inactive) in assay [14]; 89.5 µM (inactive) in [15]; > 100 µM (inactive) in assay [16]; > 100 µM (inactive) in assay [17]; 20.2 µM (inactive) in [18]. The GI50 is > 100 µM (inactive) in assay [19] and 68.4 µM (inactive) in assay [20].
Regarding `CCCCCC(/C=N/N)C(O)(C(F)(F)F)C(F)(F)F` (stereo not given), the GI50 in [1] is 1.86 µM (inactive); in assay [2] it was 7.89 µM (inactive); in assay [3], 3.58 µM (inactive); in assay [4], 3.13 µM (inactive); in assay [5], 3.37 µM (inactive); in [6] it was 3.48 µM. Moreover, the GI50 in [7] was 4.47 µM (inactive); in assay [8], 3.53 µM (inactive); in [9], 5 µM (inactive); in assay [10] it was 2.58 µM (inactive); in assay [11] it was 3.93 µM (inactive); in assay [12] it was 6.78 µM (inactive). Further, the GI50 in assay [13] was 2.47 µM (inactive); in [14] it was 1.36 µM (inactive); in [15] it was 3.34 µM (inactive); in [16], 5.06 µM (inactive); in [17], 2.97 µM (inactive); in assay [18] it was > 10 µM (inactive). For the same compound, the GI50 is 4.08 µM (inactive) in assay [19] and 5.35 µM (inactive) in assay [20].

In general, GI50 refers to the concentration at which growth is held to half of that of the control.
